Source: PMC11645267, “Novel pharmacologic inhibition of lysine-specific demethylase 1 as a potential therapeutic for glioblastoma” (Cancer Gene Therapy, 2024)

What was measured:
Type in all cases: cell-based
[1] = tested on: KINGS1; experiment: Stemness marker expression (qPCR, western blot); settings: KINGS1, 5 μM, 96 h
From the text: Super-enhancers consist of enhancer clusters with abundant binding of transcription factors and are highly enriched with H3K27ac marks. The H3K4me2 increased regions included the MYC locus and H3K4me2 de novo regions comprised Nestin and SOX2 loci (Fig. 2F, Supplementary Fig. S5A). These regions were also identified as super-enhancers in GSCs using data from our previous study (Fig. 2F). Compared to the large increase in H3K4me2 in these regions, changes in H3K4me3 were subtle after S2172 treatment (only 2582 regions were acquired modification) (Fig. 2C). Increasing the me2/me3 ratio at H3K4 is associated with reduced gene expression. […]
instructions. For GSC cells, the CellTiter-Glo 3D Viability Assay (Promega, Madison, WI, USA) was used to measure the living cells. All proliferation experiments were repeated […]
Total RNA from the cell lines was extracted using TRIzol (Thermo Fisher Scientific), followed by reverse-transcription using Prime Script RT Master Mix (Takara, Kusatsu, Japan). […]
B. Western blot analysis of LSD1,MYC, Nestin, SOX2,and ACTB in same cells as shown in panel A. ACTB was used as a loading control. […] Quantification of signal intensities of the Western blot (right panel). […] Right panel: Quantification of band signal intensities from the Western blot. […] The ratio was calculated by dividing the cleaved PARP band intensity by the full-length PARP band intensity. […]

[2] = tested on: GSC222; experiment: Cell proliferation assay (CellTiter-Glo 3D); settings: GSC222, 96 h; read-out: Growth inhibitory IC50 (GI50)
Protocol: (§1) Supplementary materials and methods […]
(§2) Cell lines and culture conditions […]
(§3) 2013 #1009}{Katsushima, 2016 #1156}. GSC cells were cultured in Neurobasal Medium (Life Technologies, Carlsbad, CA, USA) containing N2 and B27 supplements (Life Technologies) along with human recombinant basic fibroblast growth factor and epidermal growth factor (20 ng/ml each; R&D Systems, Minneapolis, MN, USA). Cells were cultured at 37°C in a humidified incubator with 5% CO2.
(§4) For the cell proliferation assay, cells at a density of 1 × 10^5 cells per well were seeded before treatment with LSD1 inhibitors. Cell proliferation was measured after 4 days using a Cell Counting Kit 8 (Dojindo, Kumamoto, Japan) according to the manufacturer ’s […]
(§5) instructions. For GSC cells, the CellTiter-Glo 3D Viability Assay (Promega, Madison, WI, USA) was used to measure the living cells. […]

[3] = tested on: GSC316; experiment: Cell proliferation assay (CellTiter-Glo 3D); settings: GSC316, 96 h; read-out: Growth inhibitory IC50 (GI50)
Protocol: as §1, §2, §3, §4, §5

[4] = tested on: GSC1228; experiment: Cell proliferation assay (CellTiter-Glo 3D); settings: GSC1228, 96 h; read-out: Growth inhibitory IC50 (GI50)
Protocol: as §1, §2, §3, §4, §5

For `NC1CCC(NC2CC2c2cc(F)cc(F)c2OCc2ccccc2)CC1` (stereo not shown) [S2172], the “stemness marker expression at mRNA and protein levels” value [1] was “did not show significant changes”, the IC50 [2] was 17 µM and the IC50 [3] was 12 µM. It also gave an IC50 [4] of 12.5 µM.
